# Patent US20230263822A1, “MODULATION OF FACTOR 11 EXPRESSION” (Ionis Pharmaceuticals, Inc., priority 2008, published 2023)
# Entries after “also recorded” stand apart in the source; their conditions may differ.
# Experiments:
# [1] = Tail bleeding assay, combination with PLAVIX (Example 27); assay type: in vivo, BALB/c mice; details: ISIS 404071 20 mg/kg, PLAVIX 0
# Method: ISIS 404071 was administered subcutaneously at a dosage of 20 mg/kg twice a week for 3 weeks to 5 groups of eight BALB/c mice. After the last dose of ISIS 404071, mice were treated with 0 mg/kg, 6.25 mg/kg, 12.50 mg/kg, 25.00 mg/kg, or 50.00 mg/kg of PLAVIX. Two doses of PLAVIX were administered to the mice on day one and one dose of PLAVIX was administered on day two, two hours before bleeding.
# Two hours after receiving their final treatment, mice were placed in a tail bleeding chamber. […] The blood was collected for the course of 40 minutes.
# platelet factor-4 (PF-4) = assay: Thrombus formation by PF-4 real-time PCR, FeCl3 induced venous thrombosis model vs Apixaban (Example 14); assay type: in vivo, BALB/c mice; details: for PF-4 in vena cava, percentage as compared to PBS controls (thrombus formation): + FeCl3
# Method: ISIS 404071 and Apixaban were evaluated in the FeCl3 induced VT mouse model. […] Two days after receiving the last dose of ISIS 404071, mice were anesthetized with 150 mg/kg ketamine mixed with 10 mg/kg xylazine administered by intraperitoneal injection. […] Twenty minutes after receiving Apixaban, mice were anesthetized with 150 mg/kg ketamine mixed with 10 mg/kg xylazine administered by intraperitoneal injection. […] Two days after the last dose of PBS, mice in both groups were anesthetized with 150 mg/kg ketamine mixed with 10 mg/kg xylazine administered by intraperitoneal injection. Thrombus formation was induced with FeCl3 in all of the mice except the first control group.
# In mice undergoing FeCl3 treatment, thrombus formation was induced by applying a piece of filter paper (2×4 mm) pre-saturated with 10% FeCl3 solution directly on the vena cava. After 3 minutes of exposure, the filter paper was removed. Thirty minutes after the filter paper application, a fixed length of the vein containing the thrombus was dissected out for platelet analysis. Liver was collected for RNA analysis.
# Real-time PCR quantification of platelet factor-4 (PF-4) was used to quantify platelets in the vena cava as a measure of thrombus formation. […] Results are presented as a percentage of PF-4 in ISIS 404071 or Apixaban treated mice, as compared to the two PBS-treated control groups.
# blood coagulation [2] = assay: Sense-oligonucleotide antidote: aPTT (Example 23); assay type: in vivo, BALB/c mice; details: ISIS 404071 40 mg/kg s.c. twice a week for three weeks, ISIS 418026 90 mg/kg where given
# Method: (§1) The effect of the specific sense oligonucleotide to ISIS 404071 as an antidote was tested in BALB/c mice. In a first cohort, ISIS 404071 was administered subcutaneously to BALB/c mice twice a week for three weeks at a dose of 40 mg/kg. In a second cohort, ISIS 404057 was administered subcutaneously to BALB/c mice twice a week for three weeks at a dose of 40 mg/kg. The ISIS 404071 specific antidote, ISIS 418026 ([…]; complementary to ISIS 404071), incorporated herein as SEQ ID NO: 13, was administered to both cohorts subcutaneously in a single injection of 90 mg/kg 48 hours after the final treatment of ISIS 404071 or 404057. In a third cohort, ISIS 404071 was administered subcutaneously to BALB/c mice twice a week for three weeks at a dose of 40 mg/kg. Following the last treatment of ISIS 404071, mice were injected subcutaneously injected with PBS. In a fourth cohort, ISIS 404057 was administered subcutaneously to BALB/c mice twice a week for three weeks at a dose of 40 mg/kg. Following the last treatment of ISIS 404057, mice were injected subcutaneously injected with PBS. Following antidote administration, a set of 4 mice from each cohort were sacrificed at 12 hours, 1 day, 2 days, 3 days, 7 days, and 14 days. Whole liver was collected for RNA analysis and PPP was collected for aPTT analysis.
# mouse Factor 11 mRNA = assay: Sense-oligonucleotide antidote: Factor 11 mRNA in liver (Example 23); assay type: in vivo, BALB/c mice; details: for Percent inhibition of mouse Factor 11 mRNA compared to PBS control: antisense 40 mg/kg s.c. twice a week for three weeks, ISIS 418026 90 mg/kg single injection where given
# Method: as §1
# RNA was extracted from liver tissue for real-time PCR analysis of Factor 11. Results are presented as percent inhibition of Factor 11, relative to PBS control.
# murine Factor 11 mRNA = assay: Time course of Factor 11 mRNA reduction in liver after one dose (Example 29); assay type: in vivo; details: BALB/c mice, one s.c. dose of 50 mg/kg, 12 hours to 56 days
# Method: One dose of 50 mg/kg ISIS 404071 was administered subcutaneously to BALB/c mice. Following ISIS 404071 administration, mice were sacrificed at 12 hours, 1 day, 2 days, 3 days, 4 days, 7 days, 14 days, 28 days, and 56 days. Whole liver was collected for RNA analysis and PPP was collected for aPTT analysis. A control group of mice was treated with one subcutaneous dose of PBS.
# RNA was extracted from liver tissue for real-time PCR analysis of Factor 11. Results are presented relative to PBS control. […] Mice began regaining Factor 11 mRNA expression by day 14.
# blood coagulation [3] = assay: PT and aPTT, combination with warfarin (Example 21); assay type: in vivo, BALB/c mice
# Method: Plasma was collected from each group 5 days after the last dose was administered. […] In a final group of BALB/c mice, PBS was administered subcutaneously twice a week for three weeks, as a control. Plasma was collected 5 days after the last PBS treatment.
# PT and aPTT values provided in Table 33 are reported as International Normalized Ratio (INR) values.
# [4] = BALB/c mice, ISIS 404071 25 or 50 mg/kg, warfarin 2 mg/kg
# [5] = ISIS 404071 25 mg/kg s.c. twice a week for 3 weeks
# [6] = ISIS 404071 50 mg/kg s.c. twice a week for 3 weeks
substance,measurement,setting,value
"ISIS 404071: antisense oligonucleotide targeted to murine Factor 11 mRNA, TGGTAATCCACTTTCAGAGG, target start site 869 (chemistry not given here)","Blood (tail bleeding, collected for 40 minutes)",[1],0 g
same,PF-4 in vena cava as measure of thrombus formation,"platelet factor-4 (PF-4); FeCl3 induced VT model, vs PBS control",resulted in reduction of PF-4
same,"PF-4 in vena cava, percentage as compared to PBS controls (thrombus formation)",platelet factor-4 (PF-4); ISIS 404071 1.25 mg/kg subcutaneously twice a week for 3 weeks,42%
same,"PF-4 in vena cava, percentage as compared to PBS controls (thrombus formation)",platelet factor-4 (PF-4); ISIS 404071 5 mg/kg subcutaneously twice a week for 3 weeks,60%
same,"PF-4 in vena cava, percentage as compared to PBS controls (thrombus formation)",platelet factor-4 (PF-4); ISIS 404071 10 mg/kg subcutaneously twice a week for 3 weeks,28%
same,"PF-4 in vena cava, percentage as compared to PBS controls (thrombus formation)",platelet factor-4 (PF-4); ISIS 404071 25 mg/kg subcutaneously twice a week for 3 weeks,14%
same,"PF-4 in vena cava, percentage as compared to PBS controls (thrombus formation)",platelet factor-4 (PF-4); ISIS 404071 50 mg/kg subcutaneously twice a week for 3 weeks,4%
same,aPTT INR,blood coagulation [2]; 12 hours after antidote/PBS,1.51 INR
same,aPTT INR,blood coagulation [2]; 1 day after antidote/PBS,1.30 INR
same,aPTT INR,blood coagulation [2]; 2 day after antidote/PBS,1.35 INR
same,aPTT INR,blood coagulation [2]; 3 day after antidote/PBS,1.27 INR
same,aPTT INR,blood coagulation [2]; 7 day after antidote/PBS,1.18 INR
same,aPTT INR,blood coagulation [2]; 14 day after antidote/PBS,1.05 INR
same,Percent inhibition of mouse Factor 11 mRNA compared to PBS control,mouse Factor 11 mRNA; 12 hours after antidote/PBS,93%
same,Percent inhibition of mouse Factor 11 mRNA compared to PBS control,mouse Factor 11 mRNA; 1 day after antidote/PBS,90%
same,Percent inhibition of mouse Factor 11 mRNA compared to PBS control,mouse Factor 11 mRNA; 2 days after antidote/PBS,89%
same,Percent inhibition of mouse Factor 11 mRNA compared to PBS control,mouse Factor 11 mRNA; 3 days after antidote/PBS,88%
same,Percent inhibition of mouse Factor 11 mRNA compared to PBS control,mouse Factor 11 mRNA; 7 days after antidote/PBS,81%
same,Percent inhibition of mouse Factor 11 mRNA compared to PBS control,mouse Factor 11 mRNA; 14 days after antidote/PBS,67%
same,inhibition of Factor 11 mRNA over the 14 day observation period,"mouse Factor 11 mRNA; BALB/c mice, ISIS 404071 40 mg/kg, with or without ISIS 418026 90 mg/kg",progressive decrease in inhibition
same,Factor 11 mRNA expression in liver over time,murine Factor 11 mRNA,significant Factor 11 mRNA down-regulation by day 1; also recorded: regained full Factor 11 mRNA expression by day 28; also recorded: did not experience a rebound effect
same,PT,blood coagulation [3]; [4],not affected
same,aPTT,blood coagulation [3]; [4],affected
same,PT INR,blood coagulation [3]; [5],0.98 INR
same,aPTT INR,blood coagulation [3]; [5],1.37 INR
same,PT INR,blood coagulation [3]; [6],0.93 INR
same,aPTT INR,blood coagulation [3]; [6],1.49 INR
